The text below walks through data of patent publication US9725459B2, “3-oxo-tetrahydro-furo[3,2-B]pyrrol-4(5H)-yl) derivatives I” (GRÜNENTHAL GMBH, priority 2014, dated 2017).

Common to all, as to format: biochemical
For one experiment, the target named is human cathepsin S (CatS) (Homo sapiens (Human), UniProt P25774). Nature of the experiment: CatS functional enzyme assay. Particulars: for Selectivity Ki(hCatS)/Ki(hCatK): ratio Ki(hCatS)/Ki(hCatK); for Ki: recombinant human CatS, substrate Z-VVR-AMC 5 μM, pH 6.5, Ki by Cheng Prusoff equation, read-out: hCatS, Ki. The procedure, abridged:
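Recombinant human enzymes were incubated 10 min at RT with AMC substrate: CatS 0.0007 mU/well with Z-VVR-AMC 5 µM; CatK 0.00175 mU/well with Z-FR-AMC 40 µM; CatL 0.000874 mU/well with Z-VVR-AMC 40 µM. Fluorescence gave IC50, converted to Ki by Cheng-Prusoff.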

For another experiment, the target named is human cathepsin K (CatK) (Homo sapiens (Human), UniProt P43235). Nature of the experiment: CatK functional enzyme assay. As to conditions: recombinant human CatK, substrate Z-FR-AMC 40 μM, pH 5.5; Ki by Cheng Prusoff equation; read-out: hCatK, Ki. The procedure, abridged: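 Recombinant human enzymes in 50 mM NaOAc, 10 mM EDTA, 1 mM DTT, 0.01% Triton X-100, pH 5.5, 10 min at RT. CatK: 0.00175 mU/well with 40 μM Z-FR-AMC; CatL: 0.000874 mU/well with 40 μM Z-VVR-AMC. AMC fluorescence read; IC50 converted to Ki via Cheng–Prusoff.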
Chain of human cathepsin K (CatK) (P43235 115-329): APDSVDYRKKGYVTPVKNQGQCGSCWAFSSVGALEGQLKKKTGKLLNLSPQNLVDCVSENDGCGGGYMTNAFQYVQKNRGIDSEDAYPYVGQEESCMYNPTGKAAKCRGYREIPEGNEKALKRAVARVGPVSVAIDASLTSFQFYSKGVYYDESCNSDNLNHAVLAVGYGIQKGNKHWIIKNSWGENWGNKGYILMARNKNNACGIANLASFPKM

The next experiment has as its target human cathepsin L (CatL) (Homo sapiens (Human), UniProt P07711). Nature of the experiment: CatL functional enzyme assay. As to conditions: read-out: hCatL, inhibition [%] at 31.6 μM.

Chain of human cathepsin L (CatL) (P07711 114-333): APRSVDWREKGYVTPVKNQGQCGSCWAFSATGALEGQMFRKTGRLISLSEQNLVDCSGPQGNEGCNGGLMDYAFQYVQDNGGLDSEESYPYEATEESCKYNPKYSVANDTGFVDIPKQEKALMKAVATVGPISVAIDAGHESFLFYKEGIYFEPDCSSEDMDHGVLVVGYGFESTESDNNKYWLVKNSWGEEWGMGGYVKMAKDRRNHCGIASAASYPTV
Chain of human cathepsin S (CatS) (P25774 115-331): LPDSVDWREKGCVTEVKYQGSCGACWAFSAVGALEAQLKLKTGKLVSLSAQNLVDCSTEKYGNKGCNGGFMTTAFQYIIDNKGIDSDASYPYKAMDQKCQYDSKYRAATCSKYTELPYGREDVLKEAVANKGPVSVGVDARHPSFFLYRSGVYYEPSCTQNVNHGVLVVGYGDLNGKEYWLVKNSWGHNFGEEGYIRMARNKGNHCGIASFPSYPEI

For the compound `O=C(N[C@H](C(=O)N1C[C@H](Cl)[C@H]2OCC(=O)[C@H]21)C1CCCCC1)c1ccc(-c2ccnc(C3CC3)c2)s1` [Example 66, N-((S)-2-((3aS,6S,6aS)-6-chloro-3-oxotetrahydro-2H-furo[3,2-b]pyrrol-4(5H)-yl)-1-cyclohexyl-2-oxoethyl)-5-(2-cyclopropylpyridin-4-yl)thiophene-2-carboxamide], on human cathepsin S (CatS), the “Selectivity Ki(hCatS)/Ki(hCatK)” value is on record as 5.0 and the Ki was determined as 0.034 µM. Also, the Ki at human cathepsin K (CatK) turned out to be 0.007 µM. Further, the inhibition at 31.6 µM on human cathepsin L (CatL) came to 3%.
For `O=C(N[C@H](C(=O)N1C[C@H](Cl)[C@H]2OCC(=O)[C@H]21)C1CCCCC1)c1ncc(-c2cnc(C(F)(F)F)nc2)s1` [Example 67, N-((S)-2-((3aS,6S,6aS)-6-chloro-3-oxotetrahydro-2H-furo[3,2-b]pyrrol-4(5H)-yl)-1-cyclohexyl-2-oxoethyl)-5-(2-(trifluoromethyl)pyrimidin-5-yl)thiazole-2-carboxamide], the “Selectivity Ki(hCatS)/Ki(hCatK)” value at human cathepsin S (CatS) stood at 4.7. Also, the inhibition constant Ki amounted to 0.198 µM on human cathepsin S (CatS) and 0.042 µM on human cathepsin K (CatK). For the same compound, the inhibition at 31.6 µM on human cathepsin L (CatL) worked out at 8%.
In the case of `O=C(N[C@H](C(=O)N1C[C@H](Cl)[C@H]2OCC(=O)[C@H]21)C1CCCCC1)c1ncc(-c2ccc(C(F)(F)F)nc2)s1` [Example 68, N-((S)-2-((3aS,6S,6aS)-6-chloro-3-oxotetrahydro-2H-furo[3,2-b]pyrrol-4(5H)-yl)-1-cyclohexyl-2-oxoethyl)-5-(6-(trifluoromethyl)pyridin-3-yl)thiazole-2-carboxamide], at human cathepsin S (CatS), the “Selectivity Ki(hCatS)/Ki(hCatK)” value was 5.9 and the Ki is 0.383 µM. Further, the Ki at human cathepsin K (CatK) was determined as 0.065 µM. The inhibition at 31.6 µM at human cathepsin L (CatL) is 5%.
The like results for `Cc1cc(-c2ccc(C(=O)N[C@H](C(=O)N3C[C@H](Cl)[C@H]4OCC(=O)[C@H]43)C3CCCCC3)s2)cnn1` [Example 69, N-((S)-2-((3aS,6S,6aS)-6-chloro-3-oxotetrahydro-2H-furo[3,2-b]pyrrol-4(5H)-yl)-1-cyclohexyl-2-oxoethyl)-5-(6-methylpyridazin-4-yl)thiophene-2-carboxamide] were, in that order, 1.1, 0.009 µM, 0.008 µM and 24%.
The like results for `O=C(N[C@H](C(=O)N1C[C@H](Cl)[C@H]2OCC(=O)[C@H]21)C1CCCCC1)c1ccc(-c2ccc[n+]([O-])c2)s1` [Example 70, 3-(5-(((S)-2-((3aS,6S,6aS)-6-chloro-3-oxotetrahydro-2H-furo[3,2-b]pyrrol-4(5H)-yl)-1-cyclohexyl-2-oxoethyl)carbamoyl)thiophen-2-yl)pyridine 1-oxide] were, in that order, 1.5, 0.027 µM, 0.019 µM and 41%.
As for `COc1cc(-c2ccc(C(=O)N[C@H](C(=O)N3C[C@H](Cl)[C@H]4OCC(=O)[C@H]43)C3CCCCC3)s2)cnn1` [Example 71, N-((S)-2-((3aS,6S,6aS)-6-chloro-3-oxotetrahydro-2H-furo[3,2-b]pyrrol-4(5H)-yl)-1-cyclohexyl-2-oxoethyl)-5-(6-methoxypyridazin-4-yl)thiophene-2-carboxamide], on human cathepsin S (CatS), the “Selectivity Ki(hCatS)/Ki(hCatK)” value was 3.0 and the Ki was 0.023 µM. Also, the inhibition constant (Ki) on human cathepsin K (CatK) came to 0.008 µM. The inhibition at 31.6 µM at human cathepsin L (CatL) turned out to be 32%.
For `COc1cnnc(-c2ccc(C(=O)N[C@H](C(=O)N3C[C@H](Cl)[C@H]4OCC(=O)[C@H]43)C3CCCCC3)s2)c1` [Example 72, N-((S)-2-((3aS,6S,6aS)-6-chloro-3-oxotetrahydro-2H-furo[3,2-b]pyrrol-4(5H)-yl)-1-cyclohexyl-2-oxoethyl)-5-(5-methoxypyridazin-3-yl)thiophene-2-carboxamide], at human cathepsin S (CatS), the “Selectivity Ki(hCatS)/Ki(hCatK)” value was 1.4 and the Ki was determined as 0.055 µM. Further, the Ki on human cathepsin K (CatK) was determined as 0.039 µM. Besides, at human cathepsin L (CatL), the inhibition at 31.6 µM came to 30%.
Consider `CCc1cnnc(-c2ccc(C(=O)N[C@H](C(=O)N3C[C@H](Cl)[C@H]4OCC(=O)[C@H]43)C3CCCCC3)s2)c1` [Example 73, N-((S)-2-((3aS,6S,6aS)-6-chloro-3-oxotetrahydro-2H-furo[3,2-b]pyrrol-4(5H)-yl)-1-cyclohexyl-2-oxoethyl)-5-(5-ethylpyridazin-3-yl)thiophene-2-carboxamide], for which, on human cathepsin S (CatS), the “Selectivity Ki(hCatS)/Ki(hCatK)” value was 0.9 and the Ki is 0.013 µM. The Ki on human cathepsin K (CatK) amounted to 0.015 µM. The inhibition at 31.6 µM on human cathepsin L (CatL) came to 26%.
Take `O=C(N[C@H](C(=O)N1C[C@H](Cl)[C@H]2OCC(=O)[C@H]21)C1CCCCC1)c1ccc(-c2cc(C3CC3)cnn2)s1` [Example 74, N-((S)-2-((3aS,6S,6aS)-6-chloro-3-oxotetrahydro-2H-furo[3,2-b]pyrrol-4(5H)-yl)-1-cyclohexyl-2-oxoethyl)-5-(5-cyclopropylpyridazin-3-yl)thiophene-2-carboxamide]: the “Selectivity Ki(hCatS)/Ki(hCatK)” value on human cathepsin S (CatS) was determined as 0.3. Besides, the results for the Ki on human cathepsin S (CatS) and at human cathepsin K (CatK) were 0.007 µM and 0.022 µM, respectively. In addition, the inhibition at 31.6 µM at human cathepsin L (CatL) came to 19%.
Take `Cc1cc(-c2cnc(C(=O)N[C@H](C(=O)N3C[C@H](Cl)[C@H]4OCC(=O)[C@H]43)C3CCCCC3)s2)cnn1` [Example 75, N-((S)-2-((3aS,6S,6aS)-6-chloro-3-oxotetrahydro-2H-furo[3,2-b]pyrrol-4(5H)-yl)-1-cyclohexyl-2-oxoethyl)-5-(6-methylpyridazin-4-yl)thiazole-2-carboxamide]: the “Selectivity Ki(hCatS)/Ki(hCatK)” value at human cathepsin S (CatS) was 1.2. Also, the inhibition constant (Ki) on human cathepsin S (CatS) amounted to 0.021 µM; on human cathepsin K (CatK) it was 0.018 µM. In addition, the inhibition at 31.6 µM on human cathepsin L (CatL) came out at 28%.
The like results for `C[S+]([O-])c1cnnc(-c2ccc(C(=O)N[C@H](C(=O)N3C[C@H](Cl)[C@H]4OCC(=O)[C@H]43)C3CCCCC3)s2)c1` (stereo partly drawn) [Example 76, N-((S)-2-((3aS,6S,6aS)-6-chloro-3-oxotetrahydro-2H-furo[3,2-b]pyrrol-4(5H)-yl)-1-cyclohexyl-2-oxoethyl)-5-(5-(methylsulfinyl)pyridazin-3-yl)thiophene-2-carboxamide] were, in that order, 1.0, 0.029 µM, 0.03 µM and 19%.
With `Cc1cc(-c2cnc(C(=O)N[C@H](C(=O)N3C[C@H](Cl)[C@H]4OCC(=O)[C@H]43)C3CCCCC3)s2)cn[n+]1[O-]` [Example 77, 4-(2-(((S)-2-((3aS,6S,6aS)-6-chloro-3-oxotetrahydro-2H-furo[3,2-b]pyrrol-4(5H)-yl)-1-cyclohexyl-2-oxoethyl)carbamoyl)thiazol-5-yl)-6-methylpyridazine 1-oxide], the “Selectivity Ki(hCatS)/Ki(hCatK)” value on human cathepsin S (CatS) was 1.3. For the same compound, the Ki on human cathepsin S (CatS) stood at 0.025 µM; at human cathepsin K (CatK), 0.02 µM. Besides, the inhibition at 31.6 µM on human cathepsin L (CatL) stood at 12%.
The like results for `CS(=O)(=O)c1cnnc(-c2ccc(C(=O)N[C@H](C(=O)N3C[C@H](Cl)[C@H]4OCC(=O)[C@H]43)C3CCCCC3)s2)c1` [Example 78, N-((S)-2-((3aS,6S,6aS)-6-chloro-3-oxotetrahydro-2H-furo[3,2-b]pyrrol-4(5H)-yl)-1-cyclohexyl-2-oxoethyl)-5-(5-(methylsulfonyl)pyridazin-3-yl)thiophene-2-carboxamide] were, in that order, 0.8, 0.016 µM, 0.02 µM and 21%.
With `O=C(N[C@H](C(=O)N1C[C@H](Cl)[C@H]2OCC(=O)[C@H]21)C1CCCCC1)c1ccc(-c2ccc[n+]([O-])n2)s1` [Example 79, 3-(5-(((S)-2-((3aS,6S,6aS)-6-chloro-3-oxotetrahydro-2H-furo[3,2-b]pyrrol-4(5H)-yl)-1-cyclohexyl-2-oxoethyl)carbamoyl)thiophen-2-yl)pyridazine 1-oxide], at human cathepsin S (CatS), the “Selectivity Ki(hCatS)/Ki(hCatK)” value amounted to 2.7 and the Ki was 0.056 µM. For the same compound, at human cathepsin K (CatK), the inhibition constant Ki worked out at 0.021 µM. On human cathepsin L (CatL), the inhibition at 31.6 µM was 25%.
For `O=C(N[C@H](C(=O)N1C[C@H](Cl)[C@H]2OCC(=O)[C@H]21)C1CCCCC1)c1ccc(-c2cnnc(O)c2)s1` [Example 80, N-((S)-2-((3aS,6S,6aS)-6-chloro-3-oxotetrahydro-2H-furo[3,2-b]pyrrol-4(5H)-yl)-1-cyclohexyl-2-oxoethyl)-5-(6-hydroxypyridazin-4-yl)thiophene-2-carboxamide], at human cathepsin S (CatS), the “Selectivity Ki(hCatS)/Ki(hCatK)” value stood at 2.6. For the same compound, the inhibitory constant (Ki) at human cathepsin S (CatS) was 0.042 µM; on human cathepsin K (CatK), 0.016 µM. The inhibition at 31.6 µM on human cathepsin L (CatL) is 30%.
The like results for `Cc1ncc(-c2ccc(C(=O)N[C@H](C(=O)N3C[C@H](Cl)[C@H]4OCC(=O)[C@H]43)C3CCCCC3)s2)c(C)n1` [Example 81, N-((S)-2-((3aS,6S,6aS)-6-chloro-3-oxotetrahydro-2H-furo[3,2-b]pyrrol-4(5H)-yl)-1-cyclohexyl-2-oxoethyl)-5-(2,4-dimethylpyrimidin-5-yl)thiophene-2-carboxamide] were, in that order, 12.1, 0.133 µM, 0.011 µM and 18%.

As usually defined, the Ki is a dissociation constant, usually derived from enzyme kinetics or from competition with a known ligand. What is called inhibition is how much of the control response was suppressed.
